From US8022061B2, “N-aryl pyrazole compounds, compositions, and methods for their use” (Amgen Inc., priority 2006, dated 2011) come the findings set out here.

The test system of the first test is ob/ob mice. Nature of the test: Increase of circulating insulin concentrations in treated ob/ob mice. The test is classed as in vivo. Particulars: male ob/ob mice, dose 3 mg/kg p.o., 10 minutes after dosing, relative to control group. On the procedure: The results presented below exemplify that administration of the compounds as provided herein to an art-recognized animal model of human diabetes can lead to increased circulating insulin concentrations in the animal model.
Male ob/ob mice were weighed and bled from tail vein, and blood glucose levels were determined with a glucometer. Animals were placed into control and treatment groups having similar averages of glucose levels and body weights. In the morning of the following day, animals were dosed with vehicle (control group) or test article (5 ml/kg, p.o.). Blood samples were collected just before and 10 minutes after dosing, and the samples were assayed for insulin and glucose concentrations.
Table 1 provides exemplary data showing the increase of circulating insulin concentrations (expressed as ng/ml) in treated mice relative to control group at 10 minutes after dosing the treated mice. Concentrations of the exemplary compound tested in the mice are provided in the righthand column.
With `CCCCc1c(C(=O)NC2CCCn3cncc32)cnn1-c1ncc(C)c(-c2cccs2)n1` (centres unmarked) [5-Butyl-1-[5-methyl-4-(2-thienyl)pyrimidin-2-yl]-N-(5,6,7,8-tetrahydroimidazo[1,5-a]pyridin-8-yl)-1H-pyrazole-4-carboxamide], the “Increase in Insulin” value is 1.4 ng/mL.

Still in this test, the particulars now being: male ob/ob mice, dose 10 mg/kg p.o., 10 minutes after dosing, relative to control group.
For the compound `CCCCc1c(C(=O)NCc2cnc3ccccn23)cnn1-c1ncc(Br)c(NC2CCC2)n1` [1-[5-Bromo-4-(cyclobutylamino)pyrimidin-2-yl]-5-butyl-N-(imidazo[1,2-a]pyridin-3-ylmethyl)-1H-pyrazole-4-carboxamide], the “Increase in Insulin” value is 7.2 ng/mL.
`CCCc1c(C(=O)NC2CCCc3cnccc32)cnn1-c1ncc(C)c(-c2cccs2)n1` (centres unmarked) [1-[5-Methyl-4-(2-thienyl)pyrimidin-2-yl]-5-propyl-N-(5,6,7,8-tetrahydroisoquinolin-5-yl)-1H-pyrazole-4-carboxamide]: the “Increase in Insulin” value was determined as 8.8 ng/mL.
Turning to `CCCCc1c(C(=O)NCCn2cncc2C(=O)O)cnn1-c1ncc(C)c(-c2cccs2)n1` [1-{2-[({5-Butyl-1-[5-methyl-4-(2-thienyl)pyrimidin-2-yl]-1H-pyrazol-4-yl}carbonyl)amino]ethyl}-1H-imidazole-5-carboxylic acid], the “Increase in Insulin” value was determined as 6.1 ng/mL.
In the case of `CCOCc1c(C(=O)NC(C)c2ccncc2)cnn1-c1ncc(C)c(-c2cccs2)n1` (centres unmarked) [5-(Ethoxymethyl)-1-[5-methyl-4-(2-thienyl)pyrimidin-2-yl]-N-(1-pyridin-4-ylethyl)-1H-pyrazole-4-carboxamide], the “Increase in Insulin” value was 6.7 ng/mL.
In the case of `CCCCc1c(C(=O)NC(CC)c2ccncc2)cnn1-c1ncc(C)c(-c2cccs2)n1` (centres unmarked) [5-Butyl-1-[5-methyl-4-(2-thienyl)pyrimidin-2-yl]-N-(1-pyridin-4-ylpropyl)-1H-pyrazole-4-carboxamide], the “Increase in Insulin” value amounted to 3.1 ng/mL.
Take `CCCCc1c(C(=O)Nc2cccc3ncn(C)c23)cnn1-c1ncc(C)c(-c2cccs2)n1` [5-Butyl-N-(1-methyl-1H-benzo[d]imidazol-7-yl)-1-(5-methyl-4-(thiophen-2-yl)pyrimidin-2-yl)-1H-pyrazole-4-carboxamide]: the “Increase in Insulin” value worked out at 4.3 ng/mL.
Consider `CCCCc1c(C(=O)NC(CO)c2ccncc2)cnn1-c1ncc(C)c(-c2cccs2)n1` (centres unmarked) [5-Butyl-N-(2-hydroxy-1-pyridin-4-ylethyl)-1-[5-methyl-4-(2-thienyl)pyrimidin-2-yl]-1H-pyrazole-4-carboxamide], for which the “Increase in Insulin” value stood at 4.3 ng/mL.
On the same count and under the same terms, with `CCCCc1c(C(=O)NC2CCn3cncc32)cnn1-c1ncc(C)c(-c2cccs2)n1` (centres unmarked) [5-Butyl-N-(6,7-dihydro-5H-pyrrolo[1,2-c]imidazol-7-yl)-1-[5-methyl-4-(2-thienyl)pyrimidin-2-yl]-1H-pyrazole-4-carboxamide] the figure was 2.2 ng/mL.
On to `CCCCc1c(C(=O)NCc2cnc3ccccn23)cnn1-c1ncc(C)c(-c2cccs2)n1` [5-Butyl-N-(imidazo[1,2-a]pyridin-3-ylmethyl)-1-[5-methyl-4-(2-thienyl)pyrimidin-2-yl]-1H-pyrazole-4-carboxamide], for which the “Increase in Insulin” value amounted to 8.5 ng/mL.
On the same count and under the same terms, as for `CCCCc1c(C(=O)NCc2c(C)ncn2CC(=O)N(C)C)cnn1-c1ncc(C)c(-c2cccs2)n1` [5-Butyl-N-({1-[2-(dimethylamino)-2-oxoethyl]-4-methyl-1H-imidazol-5-yl}methyl)-1-[5-methyl-4-(2-thienyl)pyrimidin-2-yl]-1H-pyrazole-4-carboxamide], the figure is 4.7 ng/mL; as for `CCCCc1c(C(=O)NCc2c(C)ncn2CC(=O)NC)cnn1-c1ncc(C)c(-c2cccs2)n1` [5-Butyl-N-({4-methyl-1-[2-(methylamino)-2-oxoethyl]-1H-imidazol-5-yl}methyl)-1-[5-methyl-4-(2-thienyl)pyrimidin-2-yl]-1H-pyrazole-4-carboxamide], 9 ng/mL; as for `CCCCc1c(C(=O)NC(C)c2cncn2C)cnn1-c1ncc(C)c(-c2cccs2)n1` (centres unmarked) [5-Butyl-N-[1-(1-methyl-1H-imidazol-5-yl)ethyl]-1-[5-methyl-4-(2-thienyl)pyrimidin-2-yl]-1H-pyrazole-4-carboxamide], 6.4 ng/mL.
Take `CCCCc1c(C(=O)NCCn2ccnc2)cnn1-c1ncc(C)c(-c2cccs2)n1` [5-Butyl-N-[2-(1H-imidazol-1-yl)ethyl]-1-[5-methyl-4-(2-thienyl)pyrimidin-2-yl]-1H-pyrazole-4-carboxamide]: the “Increase in Insulin” value was found to be 2.9 ng/mL.
As to `CCCCc1c(C(=O)NC(CO)c2cncn2C)cnn1-c1ncc(C)c(-c2cccs2)n1` (centres unmarked) [5-Butyl-N-[2-hydroxy-1-(1-methyl-1H-imidazol-5-yl)ethyl]-1-[5-methyl-4-(2-thienyl)pyrimidin-2-yl]-1H-pyrazole-4-carboxamide], the “Increase in Insulin” value was 5.2 ng/mL.
`CCCCc1c(C(=O)NCc2c(C)ncn2CC(=O)O)cnn1-c1ncc(Br)c(NC2CCC2)n1` [(5-{[({1-[5-Bromo-4-(cyclobutylamino)pyrimidin-2-yl]-5-butyl-1H-pyrazol-4-yl}carbonyl)amino]methyl}-4-methyl-1H-imidazol-1-yl)acetic acid]: the “Increase in Insulin” value came to 1.7 ng/mL.
Same read-out and setting: with `CCCCc1c(C(=O)NCc2cncn2CC(=O)O)cnn1-c1ncc(C)c(-c2cccs2)n1` [(5-{[({5-Butyl-1-[5-methyl-4-(2-thienyl)pyrimidin-2-yl]-1H-pyrazol-4-yl}carbonyl)amino]methyl}-1H-imidazol-1-yl)acetic acid] the figure was 3.8 ng/mL.
As for `CCCCc1c(C(=O)NCCn2cncc2C(=O)OC)cnn1-c1ncc(C)c(-c2cccs2)n1` [Methyl 1-{2-[({5-butyl-1-[5-methyl-4-(2-thienyl)pyrimidin-2-yl]-1H-pyrazol-4-yl}carbonyl)amino]ethyl}-1H-imidazole-5-carboxylate], the “Increase in Insulin” value is 6.6 ng/mL.
Same read-out and setting: with `CCCCc1c(C(=O)NCc2cncn2CC(=O)OC)cnn1-c1ncc(C)c(-c2cccs2)n1` [Methyl (5-{[({5-butyl-1-[5-methyl-4-(2-thienyl)pyrimidin-2-yl]-1H-pyrazol-4-yl}carbonyl)amino]methyl}-1H-imidazol-1-yl)acetate] the figure was 4.3 ng/mL; with `CCCCc1c(C(=O)Nc2cccc3nc[nH]c23)cnn1-c1ncc(C)c(-c2cccs2)n1` [N-1H-Benzimidazol-7-yl-5-butyl-1-[5-methyl-4-(2-thienyl)pyrimidin-2-yl]-1H-pyrazole-4-carboxamide], 0.9 ng/mL; with `COCc1c(C(=O)NCc2cnc3ccccn23)cnn1-c1ncc(C)c(-c2cccs2)n1` [N-(Imidazo[1,2-a]pyridin-3-ylmethyl)-5-(methoxymethyl)-1-[5-methyl-4-(2-thienyl)pyrimidin-2-yl]-1H-pyrazole-4-carboxamide], 4.4 ng/mL.

Still in this test, the particulars now being: male ob/ob mice, dose 30 mg/kg p.o., 10 minutes after dosing, relative to control group.
On to `CCCCc1c(C(=O)NCc2ccncc2)cnn1-c1ncc(C)c(-c2cccs2)n1` [5-Butyl-1-[5-methyl-4-(2-thienyl)pyrimidin-2-yl]-N-(pyridin-4-ylmethyl)-1H-pyrazole-4-carboxamide], for which the “Increase in Insulin” value worked out at 4.1 ng/mL.
Regarding `CCCCc1c(C(=O)NC(C)(C)c2ccncc2)cnn1-c1ncc(C)c(-c2cccs2)n1` [5-Butyl-N-(1-methyl-1-pyridin-4-ylethyl)-1-[5-methyl-4-(2-thienyl)pyrimidin-2-yl]-1H-pyrazole-4-carboxamide], the “Increase in Insulin” value is 4.6 ng/mL.
